In publication PMC7407272, “Induction of Lysosome Membrane Permeabilization as a Therapeutic Strategy to Target Pancreatic Cancer Stem Cells” (Cancers, 2020):
Where two headings read alike, the source gives them in different places.

Assays:
[1] = biological target: PIM1 (Homo sapiens, UniProt P11309); test: PIM kinase activity assay; assay type: biochemical
Method: (§1) PIM1/3 kinase activities were measured as previously described in Martínez-Gonzalez et al.. HASPIN activity was measured using the commercial ADP GLO assay (Promega), a homogeneous assay measuring ADP accumulation, as a universal product of kinase activity. The assay was done following general manufacturer recommendations and adapting protein to optimal conditions.

[2] = biological target: PIM3 (Homo sapiens, UniProt Q86V86); test: PIM kinase activity assay; assay type: biochemical
Method: as §1

[3] = test system: mouse embryonic stem cells (mESCs); test: mESC viability (MTS) screen and dose response; assay type: cell-based; conditions: Mus musculus, Embryonic stem cell, 30 h
Method: (§2) Mouse embryonic stem cells were cultured in Dulbecco’s Modified Eagle Medium (DMEM) containing 15% Fetal bovine serum (FBS), non-essential amino acids (NEAA), 2-mercaptoethanol, and Leukemia inhibitory factor (LIF) and passaged on gelatinized plates under standard conditions.
(§3) Murine embryonic stem cells (mESCs) were plated at 20,000 cells per well in gelatinized 96 well plates. Compounds from the 640 compound ETP library were added by a Beckman FX 96 tip to achieve a final concentration of 5 µM in each well, and each compound was tested in duplicate. Cells were treated for a total of 30 h prior to assessing cell viability using CellTiter 96® AQueous One Solution Cell Proliferation Assay (MTS) assay according to manufacturer’s instructions (G3582, Promega, Madison, WI, USA). Dose response curves were carried out on mESCs under the same conditions using indicated compounds. To test the viability of CSCs, 10,000 PDAC cells were plated in spheroid conditions and immediately treated with indicated compounds and concentrations for the duration of the sphere formation assay. For adherent non-CSCs, 20,000 cells were plated in wells of standard tissue culture-treated plates (Corning, Corning, NY, USA) and treated the following day with indicated compounds and concentrations. For re-plated spheres (Figure S1B), 7-day-old spheres were filtered using a 40 µM filter (Fisher Scientific, Hampton, NH, USA), washed once with 1× PBS, and incubated with trypsin 0.05% EDTA at 37 °C (Thermo Fisher Scientific, Waltham, MA, USA) to achieve a single cell suspension (approximately 10–30 min, depending on the PDAC culture). Trypsinized cells were counted and 20,000 cells were plated in wells of standard tissue culture-treated plates (Corning) and treated the following day with indicated compounds and concentrations.

[4] = mESC viability (MTS) screen and dose response; assay type: cell-based, mouse; conditions: mouse, mouse embryonic stem cells (mESCs), 5 µM, MTS
Method: as §2, §3

[5] = test system: sphere-derived PDAC2 cells; test: Tumor initiating capacity of pre-treated cells injected subcutaneously; assay type: in vivo, NU-Foxn1nu nude mice; conditions: cells treated 3 days with 0.1 µg/mL GEM or compound at 1.25 µM, then injected subcutaneously
Method: Female 6- to 8-week-old NU-Foxn1nu nude mice (Envigo, Spain) were subcutaneously injected with control or pre-treated 1 × 10^4 PDAC cells in 50 µL of Matrigel^TM (Corning). Tumor growth was monitored bi-weekly for up to 10 weeks. For Siramesine experiments, mice were subcutaneously implanted with PDAC1 and PDAC3 PDXs. After 4 weeks of tumor growth, mice were randomized into treatment groups (5 mice per group). Mice were treated with Siramesine twice a week (30 mg/kg by oral gavage formulated in 0.5% methylcellulose 15 cP in 0.9% NaCl solution) for ~4 weeks. Gemcitabine (GEMZAR®, Eli Lilly, Indianapolis, IN, USA) was administered twice a week (125 mg/kg i.p.) for ~4 weeks. Tumor volumes (mm^3) were determined twice per week using a digital caliper. Mice were sacrificed at 24 days post treatment initiation and tumors were extracted and analyzed by flow cytometry as described above. For second generation tumor formation, 1000 and 100 cells of indicated treatment groups were resuspended in Matrigel ^TM and injected subcutaneously in recipient NU-Foxn1nu nude mice and tumor formation was monitored for 10 weeks. Mice were housed according to institutional guidelines and all experiments were performed in compliance with the institutional guidelines for the welfare of experimental animals approved by the Universidad Autónoma de Madrid Ethics Committee (CEI 60-1057-A068) or by the Instituto de Salud Carlos III Ethics Committee (CBA12_2014-v3) and La Comunidad de Madrid (PROEX 335/14 or PROEX 53/14) and in accordance with the guidelines for Ethical Conduct in the Care and Use of Animals as stated in The International Guiding Principles for Biomedical Research involving Animals, developed by the Council for International Organizations of Medical Sciences (CIOMS).

[6] = biological target: T1, CDK5 (Homo sapiens, UniProt Q00535); test: KINOMEscan; assay type: binding; conditions: read-out: % Ctrl
T1 construct: purchased DiscoveRx KINOMEscan
T1 sequence (Q00535 whole entry): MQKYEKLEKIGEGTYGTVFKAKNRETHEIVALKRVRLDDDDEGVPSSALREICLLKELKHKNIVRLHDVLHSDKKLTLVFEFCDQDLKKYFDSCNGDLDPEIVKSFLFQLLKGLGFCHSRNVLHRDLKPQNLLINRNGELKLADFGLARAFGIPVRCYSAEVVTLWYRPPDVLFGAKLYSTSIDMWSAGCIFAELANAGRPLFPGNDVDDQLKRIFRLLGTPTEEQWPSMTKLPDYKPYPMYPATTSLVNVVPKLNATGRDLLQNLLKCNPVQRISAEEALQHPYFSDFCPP

[7] = biological target: T2, RIOK1 (Homo sapiens, UniProt Q9BRS2); test: KINOMEscan; assay type: binding; conditions: read-out: % Ctrl
T2 construct: purchased DiscoveRx KINOMEscan

[8] = biological target: T3, FGFR2 (Homo sapiens, UniProt P21802); test: KINOMEscan; assay type: binding; conditions: read-out: % Ctrl
T3 construct: purchased DiscoveRx KINOMEscan
T3 sequence (P21802 22-821): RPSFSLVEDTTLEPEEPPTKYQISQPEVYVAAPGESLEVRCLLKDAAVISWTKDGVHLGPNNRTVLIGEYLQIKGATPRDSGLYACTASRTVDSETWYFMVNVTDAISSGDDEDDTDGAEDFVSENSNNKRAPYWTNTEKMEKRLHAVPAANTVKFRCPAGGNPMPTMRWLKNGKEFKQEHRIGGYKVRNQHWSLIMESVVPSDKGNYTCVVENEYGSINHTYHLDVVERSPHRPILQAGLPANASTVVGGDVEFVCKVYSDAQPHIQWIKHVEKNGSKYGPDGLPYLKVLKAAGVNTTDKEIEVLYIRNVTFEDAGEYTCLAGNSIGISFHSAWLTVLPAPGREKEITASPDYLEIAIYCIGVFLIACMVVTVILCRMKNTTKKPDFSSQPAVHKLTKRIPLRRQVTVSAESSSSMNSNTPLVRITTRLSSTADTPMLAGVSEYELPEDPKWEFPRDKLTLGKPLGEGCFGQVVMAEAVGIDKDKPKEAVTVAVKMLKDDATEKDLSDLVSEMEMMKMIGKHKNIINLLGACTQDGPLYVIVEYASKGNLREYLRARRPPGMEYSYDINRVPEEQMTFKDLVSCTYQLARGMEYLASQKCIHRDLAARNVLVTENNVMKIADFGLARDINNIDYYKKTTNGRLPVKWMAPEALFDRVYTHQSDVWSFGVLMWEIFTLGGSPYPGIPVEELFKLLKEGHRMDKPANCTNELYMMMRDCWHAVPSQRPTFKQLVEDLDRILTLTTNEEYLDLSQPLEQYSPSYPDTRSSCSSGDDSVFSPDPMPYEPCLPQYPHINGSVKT

[9] = biological target: T4, LIMK1 (Homo sapiens, UniProt P53667); test: KINOMEscan; assay type: binding; conditions: read-out: % Ctrl
T4 construct: purchased DiscoveRx KINOMEscan
T4 sequence (P53667 whole entry): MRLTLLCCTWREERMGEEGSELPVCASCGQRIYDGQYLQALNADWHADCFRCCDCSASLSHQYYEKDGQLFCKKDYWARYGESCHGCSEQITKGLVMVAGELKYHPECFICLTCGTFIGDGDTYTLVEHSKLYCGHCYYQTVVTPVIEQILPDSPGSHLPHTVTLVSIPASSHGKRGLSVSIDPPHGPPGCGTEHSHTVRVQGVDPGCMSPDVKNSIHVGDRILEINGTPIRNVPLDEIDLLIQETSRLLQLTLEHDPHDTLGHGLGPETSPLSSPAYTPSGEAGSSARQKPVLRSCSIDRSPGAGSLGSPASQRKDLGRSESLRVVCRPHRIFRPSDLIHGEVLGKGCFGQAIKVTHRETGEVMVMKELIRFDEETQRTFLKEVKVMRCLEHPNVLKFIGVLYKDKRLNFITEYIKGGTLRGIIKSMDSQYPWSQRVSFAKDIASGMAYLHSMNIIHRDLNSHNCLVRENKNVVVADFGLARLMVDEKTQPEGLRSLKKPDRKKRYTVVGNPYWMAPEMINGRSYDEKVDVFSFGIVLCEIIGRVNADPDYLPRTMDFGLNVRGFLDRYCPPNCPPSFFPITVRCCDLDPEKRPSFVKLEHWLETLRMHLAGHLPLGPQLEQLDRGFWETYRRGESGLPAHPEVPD

[10] = biological target: T5, ERK3 (Homo sapiens, UniProt Q16659); test: KINOMEscan; assay type: binding; conditions: read-out: % Ctrl
T5 construct: purchased DiscoveRx KINOMEscan

[11] = biological target: T6, CDC2L1 (Homo sapiens, UniProt P21127); test: KINOMEscan; assay type: binding; conditions: read-out: % Ctrl
T6 construct: purchased DiscoveRx KINOMEscan

[12] = biological target: T7, KIT(D816H) (Homo sapiens, UniProt P10721, D816H); test: KINOMEscan; assay type: binding; conditions: read-out: % Ctrl
T7 construct: purchased DiscoveRx KINOMEscan

[13] = biological target: T8, CDK4-cyclinD3 (Homo sapiens, UniProt P11802); test: KINOMEscan; assay type: binding; conditions: read-out: % Ctrl
T8 construct: purchased DiscoveRx KINOMEscan
T8 sequence (P11802 whole entry): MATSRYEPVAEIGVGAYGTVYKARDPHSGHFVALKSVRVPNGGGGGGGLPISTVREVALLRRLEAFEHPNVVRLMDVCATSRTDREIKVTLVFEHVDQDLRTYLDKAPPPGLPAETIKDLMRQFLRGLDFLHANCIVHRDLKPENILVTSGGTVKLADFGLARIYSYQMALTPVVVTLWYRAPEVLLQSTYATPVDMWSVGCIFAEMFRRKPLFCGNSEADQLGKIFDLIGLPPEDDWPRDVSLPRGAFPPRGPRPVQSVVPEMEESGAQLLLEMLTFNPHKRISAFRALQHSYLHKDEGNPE
T8 sequence (P30281 whole entry partner): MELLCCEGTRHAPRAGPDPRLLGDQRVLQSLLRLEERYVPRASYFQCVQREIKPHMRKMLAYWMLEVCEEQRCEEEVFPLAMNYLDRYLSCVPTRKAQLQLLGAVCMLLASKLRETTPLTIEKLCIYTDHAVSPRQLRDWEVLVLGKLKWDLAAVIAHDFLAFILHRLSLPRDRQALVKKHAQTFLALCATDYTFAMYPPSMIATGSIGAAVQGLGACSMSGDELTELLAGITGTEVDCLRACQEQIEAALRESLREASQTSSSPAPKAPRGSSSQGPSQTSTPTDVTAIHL

[14] = biological target: T9, RIOK2 (Homo sapiens, UniProt Q9BVS4); test: KINOMEscan; assay type: binding; conditions: read-out: % Ctrl
T9 construct: purchased DiscoveRx KINOMEscan

[15] = biological target: T10, PLK3 (Homo sapiens, UniProt Q9H4B4); test: KINOMEscan; assay type: binding; conditions: read-out: % Ctrl
T10 construct: purchased DiscoveRx KINOMEscan
T10 sequence (Q9H4B4 whole entry): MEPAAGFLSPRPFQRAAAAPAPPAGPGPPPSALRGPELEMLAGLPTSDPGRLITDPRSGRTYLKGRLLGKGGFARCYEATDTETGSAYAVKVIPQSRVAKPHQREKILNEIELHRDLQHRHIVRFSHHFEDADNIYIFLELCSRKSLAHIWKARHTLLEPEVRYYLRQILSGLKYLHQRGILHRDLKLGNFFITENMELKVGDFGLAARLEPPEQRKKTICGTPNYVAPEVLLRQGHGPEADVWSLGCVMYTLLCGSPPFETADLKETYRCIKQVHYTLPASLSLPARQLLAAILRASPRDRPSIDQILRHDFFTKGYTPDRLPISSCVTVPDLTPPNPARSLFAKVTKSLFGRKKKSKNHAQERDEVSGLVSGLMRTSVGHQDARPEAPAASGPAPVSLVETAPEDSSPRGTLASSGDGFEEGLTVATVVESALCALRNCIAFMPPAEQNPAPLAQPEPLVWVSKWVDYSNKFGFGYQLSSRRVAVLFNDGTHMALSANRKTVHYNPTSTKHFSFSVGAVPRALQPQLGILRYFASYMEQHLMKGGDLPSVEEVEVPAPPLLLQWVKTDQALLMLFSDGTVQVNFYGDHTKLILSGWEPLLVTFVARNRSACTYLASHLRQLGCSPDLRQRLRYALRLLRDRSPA

[16] = biological target: T11, BUB1 (Homo sapiens, UniProt O43683); test: KINOMEscan; assay type: binding; conditions: read-out: % Ctrl
T11 construct: purchased DiscoveRx KINOMEscan
T11 sequence (O43683 whole entry): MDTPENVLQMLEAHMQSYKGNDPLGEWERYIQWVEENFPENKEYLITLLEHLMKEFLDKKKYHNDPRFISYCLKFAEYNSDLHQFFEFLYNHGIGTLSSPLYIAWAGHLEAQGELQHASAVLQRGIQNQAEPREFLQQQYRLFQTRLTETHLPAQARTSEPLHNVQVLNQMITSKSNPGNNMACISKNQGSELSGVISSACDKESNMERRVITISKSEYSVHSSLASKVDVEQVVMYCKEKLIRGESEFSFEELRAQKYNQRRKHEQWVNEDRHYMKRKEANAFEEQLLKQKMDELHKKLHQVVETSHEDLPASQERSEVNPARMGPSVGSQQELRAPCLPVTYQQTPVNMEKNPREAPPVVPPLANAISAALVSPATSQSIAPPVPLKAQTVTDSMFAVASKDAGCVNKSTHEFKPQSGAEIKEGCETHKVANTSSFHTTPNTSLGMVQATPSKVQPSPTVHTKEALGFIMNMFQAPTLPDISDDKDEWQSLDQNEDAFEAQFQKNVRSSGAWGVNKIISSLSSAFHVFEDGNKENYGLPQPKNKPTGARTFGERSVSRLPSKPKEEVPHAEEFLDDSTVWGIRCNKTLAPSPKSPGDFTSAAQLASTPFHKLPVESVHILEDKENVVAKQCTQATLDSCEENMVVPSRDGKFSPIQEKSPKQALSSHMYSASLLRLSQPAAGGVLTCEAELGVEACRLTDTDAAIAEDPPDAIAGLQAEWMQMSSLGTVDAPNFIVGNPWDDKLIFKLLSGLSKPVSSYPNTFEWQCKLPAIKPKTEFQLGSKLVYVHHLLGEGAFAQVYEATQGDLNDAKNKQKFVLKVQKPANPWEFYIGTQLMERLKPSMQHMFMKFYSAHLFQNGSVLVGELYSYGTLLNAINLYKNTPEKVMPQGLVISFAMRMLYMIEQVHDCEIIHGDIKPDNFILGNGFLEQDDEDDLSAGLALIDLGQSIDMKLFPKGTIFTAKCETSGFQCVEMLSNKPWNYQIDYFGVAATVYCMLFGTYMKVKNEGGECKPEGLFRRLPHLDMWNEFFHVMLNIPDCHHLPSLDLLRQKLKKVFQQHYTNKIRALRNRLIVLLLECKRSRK

[17] = biological target: T12, CHEK2 (Homo sapiens, UniProt O96017); test: KINOMEscan; assay type: binding; conditions: read-out: % Ctrl
T12 construct: purchased DiscoveRx KINOMEscan

[18] = biological target: T13, ABL1(M351T)-P (Homo sapiens, UniProt P00519, M351T); test: KINOMEscan; assay type: binding; conditions: read-out: % Ctrl
T13 construct: purchased DiscoveRx KINOMEscan

[19] = biological target: T14, MINK (Homo sapiens, UniProt Q8N4C8); test: KINOMEscan; assay type: binding; conditions: read-out: % Ctrl
T14 construct: purchased DiscoveRx KINOMEscan

[20] = biological target: T15, NEK9 (Homo sapiens, UniProt Q8TD19); test: KINOMEscan; assay type: binding; conditions: read-out: % Ctrl
T15 construct: purchased DiscoveRx KINOMEscan

[21] = biological target: T16, ABL1(T315I)-nonP (Homo sapiens, UniProt P00519, T315I); test: KINOMEscan; assay type: binding; conditions: read-out: % Ctrl
T16 construct: purchased DiscoveRx KINOMEscan

Sequence of PIM1 (P11309 whole entry): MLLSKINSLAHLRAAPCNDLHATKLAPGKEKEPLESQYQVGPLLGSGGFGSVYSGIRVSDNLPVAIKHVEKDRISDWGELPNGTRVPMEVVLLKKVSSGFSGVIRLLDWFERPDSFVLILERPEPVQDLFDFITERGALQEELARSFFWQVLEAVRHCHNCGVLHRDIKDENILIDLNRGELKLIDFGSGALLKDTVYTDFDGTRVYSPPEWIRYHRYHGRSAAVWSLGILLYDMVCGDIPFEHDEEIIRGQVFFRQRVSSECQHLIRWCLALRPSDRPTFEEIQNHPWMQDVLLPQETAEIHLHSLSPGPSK

COc1nc2ccc(NCC3CCN(C)CC3)nn2c1C(=O)Nc1cccc(OC(F)(F)F)c1 [Cpd 1] showed an IC50 [1] of over 10 µM, an IC50 [2] of over 10 µM and an EC50 [3] of 1.33 µM. The viability at 30 h, 5 µM [4] was 8% and the “tumor formation / growth from pre-treated cells” value [5] was “complete inhibition in tumor formation”.

Compound CN1CCC(CNc2ccc3ncc(C(=O)Nc4cccc(OC(F)(F)F)c4)n3n2)CC1 [Cpd 2] has a remaining binding at 1 µM [6] of 100%, a remaining binding at 1 µM [7] of 76% and an IC50 ([1]; kinase orthogonal assay) of 0.098 µM. The IC50 ([2]; kinase orthogonal assay) was 0.129 µM, the remaining binding at 1 µM [8] was 100% and the remaining binding at 1 µM [9] was 79%. The remaining binding at 1 µM [10] was 100%, the remaining binding at 1 µM [11] was 100% and the remaining binding at 1 µM [12] was 91%. It also gave an EC50 [3] of 2.05 µM, a viability at 30 h, 5 µM [4] of 19% and a remaining binding at 1 µM [13] of 100%. For the same compound, the remaining binding at 1 µM [14] was 99%, the “tumor formation / growth from pre-treated cells” value [5] was “reduced” and the remaining binding at 1 µM [15] was 97%. It also gave a remaining binding at 1 µM [16] of 62%, a remaining binding at 1 µM [17] of 95% and a remaining binding at 1 µM [18] of 100%. For the same compound, the remaining binding at 1 µM [19] was 94%, the remaining binding at 1 µM [20] was 88% and the remaining binding at 1 µM [21] was 70%.
